Data set [1] in a line: Thermodynamic solubility at pH 7.4 (miniaturized shake-flask). Type of data set: physicochemical. The following applies: pH 7.4, PBS, 23 °C; for solubility thermodynamic at 24 h: phosphate buffer (PBS), aqueous buffer, kinetic from dmso stock. How it is done: Thermodynamic solubility at pH 7.4 of compounds was determined according to a miniaturized shake-flask method (Organisation for Economic Cooperation and Development guideline n°105). Phosphate Buffer solutions (pH 7.4, […], ionic strength […]) were prepared from Na2HPO4, KH2PO4 and KCl (Sigma Aldrich, Saint Quentin Fallavier, France); 10 µL of 20 mM stock solution were added to 5 mL glass tubes containing […] buffer (n = 3). The tubes were briefly sonicated and shacked by inversion during 24 h at 23 °C. Then, the tube contents were placed in a microtube which was centrifuged at 12,225× g for 10 min; 100 µL supernatant were mixed with 100 µL acetonitrile in a Greiner UV microplate. Standard solutions were prepared extemporaneously, diluting 20 mM DMSO stock solutions at […]; 5 µL of each working solution were diluted with 995 µL buffer and 100 µL were then mixed in microplates with 100 µL acetonitrile so as to ensure that the final proportions of each solvent in standard solutions and samples remained unchanged. Solubility at pH 7.4 was determined with an Infinite M200Pro (Tecan, Lyon, France) microplate reader in spectrophotometric mode (230 to 450 nm) from the specific λmax of each compound. The calibration curve was obtained from the […] standard solutions of tested compounds at 0, 25, 50, and 100 µM in a 50:50 (vol/vol) mixture of buffer with acetonitrinile/DMSO (99:1; vol/vol). Calibration curves were linear with R^2 > 0.99.

The test system of data set [2] is L. infantum intracellular amastigotes. Description: Antileishmanial activity on L. infantum intracellular (intra-THP1 macrophage) amastigotes. The data set is classed as cell-based. The following applies: Leishmania infantum, THP-1; intramacrophage (THP1) amastigotes, 120 h; read-out: EC50 L. infantum Intra. Ama. The procedure:
The undifferentiated THP1 human monocyte cells (acute monocytic leukemia cell line purchased from ATCC, ref TIB-202) were grown in RPMI 1640 medium (Life Technologies, Saint-Aubin, France) supplemented with 10% FCS (Life Technologies, Saint-Aubin, France), 100 U/mL penicillin, 100 µg/mL streptomycin and 2 mM L-glutamine at 37 °C, 5% CO2. The culture was maintained between 3.10^5 and 1.10^6 cells/mL. The in vitro evaluation of the antileishmanial activity on intracellular amastigote forms of the tested compound was assessed as below.
Briefly, 200 μL of THP-1 cells with Phorbol 12-Myristate 13-Acetate (final concentration 50 ng/mL) were seeded in 96-well plates at an average density of 0.77 × 10^5 cells/mL and incubated for 96 h at 37 °C, 5% CO2. Promastigotes were centrifuged at 3000 rpm for 10 min and the supernatant replaced by the same volume of complete RPMI pH 5.4 and incubated for 24 h at 27 °C. Differentiated THP-1 cells were then infected by acidified promastigotes with an infection ratio of twenty parasites for one macrophage and incubated for 24 h at 37 °C, 5% CO2.
• Luciferase activity and determination of EC50 were performed as above.

Data set [3] can be described thus: Redox potential of the nitro group by cyclic voltammetry. The data set is classed as physicochemical. The following applies: cyclic voltammetry in DMSO, corrected versus NHE. How it is done: Voltammetric measurements were carried out with a potentiostat Autolab PGSTAT100 (ECO Chemie, Utrecht, The Netherlands) controlled by GPES 4.09 software (ECO Chemie, Utrecht, The Netherlands). Experiments were performed at room temperature in a homemade airtight three–electrode cell connected to a vacuum/argon line. The reference electrode consisted of a saturated calomel electrode (SCE) separated from the solution by a bridge compartment. The counter electrode was a platinum wire of 1 cm^2 apparent surface. The working electrode was a GC microdisk (1.0 mm in diameter–Bio-logic SAS). The supporting electrolyte (nBu4N)[PF6] (Fluka, 99% puriss electrochemical grade) and the solvent DMSO (Sigma-Aldrich puriss p.a. dried <0.02% water) were used as received and simply degassed under argon. The solutions used during electrochemical analyses were typically 10^−3 M in compound and 0.1 M in supporting electrolyte. Before each measurement, the solutions were degassed by bubbling Ar, and the working electrode was polished with a polishing machine (Presi P230, Eybens, France). Under the experimental conditions adopted in this work, the half-wave potential (E1/2) of the ferrocene Fc+/Fc couple in DMSO was E1/2 = 0.45 V vs. SCE. Experimental peak potentials were measured versus SCE and converted to NHE by adding 0.241 V.

Data set [4] relates to L. donovani promastigotes. Description: Antileishmanial activity against L. donovani promastigotes (MTT assay). The data set is classed as cell-based. The note with it: Leishmania donovani; promastigotes, 72 h, MTT; read-out: EC50 L. donovani Pro. The procedure: The Leishmania species used in this study were L. donovani (MHOM/IN/00/DEVI) purchased from CNR Leishmania (Montpellier, France). Leishmania promastigote forms were grown in Schneider’s Drosophila medium (Life Technologies, Saint-Aubin, France) supplemented with 100 U/mL penicillin, 100 µg/mL streptomycin, 2 mM L-glutamine and 20% FCS (Life Technologies, Saint-Aubin, France) at 27 °C. The in vitro evaluation of the tested compound’s antileishmanial activity on promastigote forms was carried out by MTT assay according to the Mosmann protocol with some modifications. Briefly, promastigotes in log-phase were incubated at an average density of 10^6 parasites/mL in sterile 96-well plates with various concentrations of compound dissolved in DMSO (final concentration less than 0.5% v/v), in duplicate. Appropriate controls treated with DMSO, Miltefosine, Amphotericin B, Fexinidazole, and Fexinidazole sulfone (reference drugs purchased from Sigma-Aldrich, Saint-Louis, Missouri, USA) were added to each set of experiments. After a 72 h incubation period at 27 °C, parasitic metabolic activity was determined. Each plate-well was then microscope-analyzed to detect any precipitate formation. 20 µL of MTT (3-(4,5-dimethylthiazol-2-yl)-2,5-diphenyltetrazolium bromide) (Sigma-Aldrich, Saint-Louis, Missouri, USA) solution (5 mg/mL in PBS) were added to each well and incubated for 4 h at 27 °C. The enzyme reaction was then stopped by addition of 100 µL of 50% isopropanol–10% sodium dodecyl sulfate. Plates were shaken vigorously at 300 rpm for 10 min. The absorbance was measured at 570 nm in a BIO-TEK Elx808 (Biotek, Colmar, France) absorbance microplate reader. […] EC50 values were calculated by non-linear regression analysis processed dose-response curves, using TableCurve 2D V5.0 software (Systat Software Inc. (Palo Alto, CA, USA)). EC50 values represent the mean value calculated from at least three separate experiments.
(In general: Formazan colour is commonly taken as a measure of viable cells.)

Data on 14 compounds can be found in publication PMC9415646, “Improving Aqueous Solubility and In Vitro Pharmacokinetic Properties of the 3-Nitroimidazo[1,2-a]pyridine Antileishmanial Pharmacophore” (Pharmaceuticals, 2022).

Values after ≈ are worked out from the molar mass of the structure shown. Where only a bound is given, the exact number is not on record here.

For `O=[N+]([O-])c1c(CS(=O)(=O)c2ccc(OC(F)(F)F)cc2)nc2c(Sc3ccc(Cl)cc3)cc(Cl)cn12` [Compound 3e, 6-Chloro-8-[(4-Chlorophenyl)thio]-3-Nitro-2-[(4-Trifluoromethoxyphenylsulfonyl)methyl]imidazo[1,2-a]pyridine], the thermodynamic solubility – broadly, the concentration in solution at equilibrium with solid – at 24 h in data set [1] was determined as 64.7 ± 7.3 µM (≈ 37.4 µg/mL). The EC50 (usually the concentration needed to bring the measured effect to its halfway point) worked out at 1600 ± 100 nM in data set [2] and 2600 ± 200 nM in data set [4]. Also, the “E0 (redox potential of the nitro group)” value in data set [3] is recorded as −0.66 V.
Consider `O=[N+]([O-])c1c(CS(=O)(=O)C2CC2)nc2c(Sc3ccc(Cl)cc3)cc(Cl)cn12` [Compound 3h, 6-Chloro-8-[(4-Chlorophenyl)thio]-2-[(cyclopropylsulfonyl)methyl]-3-Nitroimidazo[1,2-a]pyridine], for which, in data set [1], the solubility (thermodynamic) at 24 h turned out to be 3 ± 0.4 µM (≈ 1.38 µg/mL). Further, the EC50 in data set [2] came to 3700 ± 200 nM; in data set [4], 2200 ± 300 nM. For the same compound, in data set [3], the “E0 (redox potential of the nitro group)” value is −0.65 V.
The like results for `O=[N+]([O-])c1c(CS(=O)(=O)c2ccc(OC(F)(F)F)cc2)nc2c(Br)cc(Cl)cn12` [Compound 2f, 8-Bromo-6-Chloro-3-Nitro-2-[(4-Trifluoromethoxyphenylsulfonyl)methyl]imidazo[1,2-a] pyridine] were, in that order, 8.6 ± 2.3 µM (≈ 4.43 µg/mL), 4200 ± 300 nM, 4400 ± 100 nM and −0.62 V.
For `COc1ccc(S(=O)(=O)Cc2nc3c(Br)cc(Cl)cn3c2[N+](=O)[O-])cc1` [Compound 2g, 8-Bromo-6-Chloro-2-[(4-Methoxyphenylsulfonyl)methyl]-3-Nitroimidazo[1,2-a]pyridine] the same measures were 5.7 ± 1.3 µM (≈ 2.63 µg/mL), 2200 ± 100 nM, 2800 ± 900 nM and −0.64 V.
For `O=[N+]([O-])c1c(CS(=O)(=O)c2ccc(O)cc2)nc2c(Sc3ccc(Cl)cc3)cc(Cl)cn12` [Compound 3a, 4-{[(6-Chloro-8-[(4-Chlorophenyl)thio]-3-Nitroimidazo[1,2-a]pyridin-2-yl)methyl]sulfonyl}phenol], the EC50 in data set [2] came to 2700 ± 500 nM; in data set [4], 800 ± 200 nM.
`CSc1ccc(OCc2ncc([N+](=O)[O-])n2C)cc1` [Fexinidazole, reference compound]: the EC50 is 15900 ± 3200 nM in data set [2] and 1200 ± 200 nM in data set [4]. Moreover, the “E0 (redox potential of the nitro group)” value in data set [3] was −0.83 V.
In the case of `O=[N+]([O-])c1c(CS(=O)(=O)CCC(F)(F)F)nc2c(Sc3ccc(Cl)cc3)cc(Cl)cn12` [Compound 3i, 6-Chloro-8-[(4-Chlorophenyl)thio]-3-Nitro-2-[(3,3,3-Trifluoropropylsulfonyl)methyl]imidazo[1,2-a]pyridine], the solubility (thermodynamic) at 24 h in data set [1] stood at 12.4 ± 3 µM (≈ 6.38 µg/mL). The EC50 in data set [2] amounted to 1200 ± 100 nM; in data set [4] it was 1400 ± 200 nM. Also, the “E0 (redox potential of the nitro group)” value in data set [3] is on record as −0.64 V.
In data set [1], `O=[N+]([O-])c1c(CS(=O)(=O)c2ccccc2)nc2c(Br)cc(Cl)cn12` [Hit A, 8-Bromo-6-chloro-3-nitro-2-(phenylsulfonylmethyl)imidazo[1,2-a]pyridine, reference compound] yielded a solubility (thermodynamic) at 24 h of 6.9 ± 1.5 µM (≈ 2.97 µg/mL). Moreover, the EC50 in data set [2] came out at 2100 ± 100 nM; in data set [4], 5300 ± 1100 nM. Further, the “E0 (redox potential of the nitro group)” value in data set [3] is −0.65 V.
For the compound `O=[N+]([O-])c1c(CS(=O)(=O)c2ccccc2)nc2c(Sc3ccc(Cl)cc3)cc(Cl)cn12` [Hit B, reference compound], in data set [1] (24 h), the “Thermodynamic Solubility at pH 7.4 in PBS” value worked out at 1.4 ± 0.5 µM. For the same compound, the values for the EC50 in data set [2] and in data set [4] were 3200 ± 100 nM and 1000 ± 300 nM, respectively. Besides, the “E0 (redox potential of the nitro group)” value in data set [3] is listed as −0.63 V.
Consider `COc1ccc(S(=O)(=O)Cc2nc3c(Sc4ccc(Cl)cc4)cc(Cl)cn3c2[N+](=O)[O-])cc1` [Compound 3f, 6-Chloro-8-[(4-Chlorophenyl)thio]-2-[(4-Methoxyphenylsulfonyl)methyl]-3-Nitroimidazo[1,2-a]pyridine], for which the solubility (thermodynamic) at 24 h in data set [1] is < 2 µM. The concentration for a half-maximal effect (EC50) in data set [2] was found to be 900 ± 100 nM; in data set [4], 1200 ± 100 nM. Moreover, the “E0 (redox potential of the nitro group)” value in data set [3] is on record as −0.66 V.
The like results for `O=[N+]([O-])c1c(CS(=O)(=O)c2ccc(Cl)cc2)nc2c(Sc3ccc(Cl)cc3)cc(Cl)cn12` [Compound 3b, 6-Chloro-2-[(4-Chlorophenylsulfonyl)methyl]-8-[(4-Chlorophenyl)thio]-3-Nitroimidazo[1,2-a]pyridine] were, in that order, < 2 µM, 700 ± 100 nM, 1400 ± 100 nM and −0.68 V.
Turning to `O=[N+]([O-])c1c(CS(=O)(=O)CCC(F)(F)F)nc2c(S(=O)(=O)c3ccc(Cl)cc3)cc(Cl)cn12` [Compound 6b, 6-Chloro-8-[(4-Chlorophenyl)sulfonyl]-3-Nitro-2-[(3,3,3-Trifluoropropylsulfonyl)methyl] imidazo[1,2-a]pyridine], the concentration for a half-maximal effect (EC50) in data set [2] came out at 8300 ± 800 nM; in data set [4] it was 1300 ± 200 nM.
Consider `O=[N+]([O-])c1c(CS(=O)(=O)c2ccc(F)cc2)nc2c(Sc3ccc(Cl)cc3)cc(Cl)cn12` [Compound 3c, 6-Chloro-8-[(4-Chlorophenyl)thio]-2-[(4-Fluorophenylsulfonyl)methyl]-3-Nitroimidazo[1,2-a]pyridine], for which the thermodynamic solubility at 24 h in data set [1] is < 2 µM. The concentration giving a half-maximal response (EC50) in data set [2] is 1600 ± 100 nM; in data set [4] it was 900 ± 100 nM. Also, in data set [3], the “E0 (redox potential of the nitro group)” value is recorded as −0.61 V.
In data set [1], `O=[N+]([O-])c1c(CS(=O)(=O)c2ccc(C(F)(F)F)cc2)nc2c(Sc3ccc(Cl)cc3)cc(Cl)cn12` [Compound 3d, 6-Chloro-8-[(4-Chlorophenyl)thio]-3-Nitro-2-[(4-Trifluoromethylphenylsulfonyl)methyl]imidazo[1,2-a]pyridine] yielded a solubility (thermodynamic) at 24 h of 2.5 ± 0.7 µM (≈ 1.41 µg/mL). Further, the EC50 was found to be 4400 ± 200 nM in data set [2] and 1800 ± 200 nM in data set [4]. Moreover, the “E0 (redox potential of the nitro group)” value in data set [3] is listed as −0.56 V.
